From patent US20230384334A1, “METHOD FOR CALCULATING DRINKING TIME” (Shanxi Medical University, priority 2022, published 2023)
Read-outs that look alike come from different tables or passages of the source.

Settings: in vivo
Protocol: Approved by the Medical Ethics Committee of Shanxi Medical University (2018LL349), a total of 26 adults including 14 men and 12 women are recruited by the team to participate in the study.
All the blood samples were stored at −20 DEG C. until the end of the analysis.
1 mL of blood and 1 mL of tert-butanol (IS, 87 mg/mL) were added to a headspace vial, diluted with 3 mL of ultrapure water, mixed in a sealed condition, and then analyzed by the headspace gas chromatography.
Metabolites EtG and EtS in blood samples were measured by liquid chromatography-tandem quadrupole mass spectrometry (LC-MS/MS) with EtG-D5 and EtS-D5 as internal standards. […] Then 800 μL of 80% acetonitrile in methanol was added, and the mixture is precipitated at 0 DEG C. for 10min. After that, centrifugation was performed at 13000 rpm for 5 min, supernatant was taken out, and dried, by blowing, with nitrogen at 35 DEG C., and then re-dissolved with 400 μL of 5% acetonitrile in water and centrifuged again at 13000 rpm for 5 min.
Chromatograph separation was performed via an LC-20 A system. Conditions of the chromatograph were as follows:
chromatographic column: Inertsil ODS-3 column (2.1 mm×100 mm, 3 μm; Shimadzu, Japan) , and column temperature: 35 DEG C.
Targeted substances were tested by a tandom mass spectrometer (TRAP4,000, Sciex, AB). The specific conditions were as follows:
Ion source: electron spray ionization (ESI); voltage of ion spray: −4000 V, and temperature: 500 DEG C.; curtain gas, nebulizer (Gas 1), and heating auxiliary gas (Gas 2): 40 psi, 50 psi, and 35 psi respectively.
Scanning mode: anions+multiple reaction monitoring (MRM).
The pharmacokinetic parameters were calculated by a non-compartmental model using a DAS 3.0 software. All data was summarized using descriptive statistics. […] All statistical analyses were performed using version 13.0 of an IBM SPSS® software (SPSS Inc., Chicago, IL, USA).

| Compound | AUC (0-t), area under the curve (human, po) | Cmax, peak concentration (human, po) | Tmax, time to peak (human, po) | t1/2z, half-life period (human, po) | LOD (h) in human blood (po) | Cmax, peak concentration (human, 0.72 g/kg) | Clz/F, clearance rate (human, po) | Vz/F, apparent volume of distribution (human, po) | Detection window time (maximum observed value) in blood (po) |
| --- | --- | --- | --- | --- | --- | --- | --- | --- | --- |
| CCO[C@@H]1O[C@H](C(=O)O)[C@@H](O)[C@H](O)[C@H]1O [EtG, Ethyl glucuronide] | 1990 ± 780 ng·h/mL | 310 ± 110 ng/mL | 4.12 ± 1.07 h | 2.56 ± 0.89 h | 22.15 ± 4.42 h | – | – | – | – |
| CCOS(=O)(=O)O [EtS, Ethyl sulphate] | 1040 ± 340 ng·h/mL | 170 ± 40 ng/mL | – | 2.04 ± 0.76 h | 16.92 ± 6.23 h | 170 ng/mL | – | – | – |
| CCO [alcohol, Alcohol] | 1,715.23 ± 626.72 mg/L* | – | 2.02 ± 0.54 h | – | 5.81 ± 1.74 h | – | 0.49 ± 0.33 L/h | 0.69 ± 0.49 L/kg | 3 to 8 h |
